Experimental data reported in US9637520B2, “Template-fixed peptidomimetics with CXCR7 modulating activity” (POLYPHOR AG, priority 2010, dated 2017).
Starred links: 1 amine or outer side, 2 acyl side, 3 side chain; linkers in the order of their positions; H or OH if unused. Non-standard residues stand in square brackets, D forms with d. Residues, ends and D or L forms follow the SMILES beside them. *: point of attachment. Arg(Nω,Nω'-propylene) = N[C@@H](CCCNC1=NCCCN1)C(=O)O; dPro(cis-4-NH2) = N[C@H]1CN[C@@H](C(=O)O)C1; X1 = O=C([C@H](CCCNCc1ccccn1)N[*:1])[*:2]; X4 = Cn1ccnc1CNCCC[C@H](N[*:1])C(=O)[*:2]; Tiq1c(1S) = O=C(O)[C@H]1NCCc2ccccc21; X2 = O=C([C@H](Cn1ncnn1)N[*:1])[*:2]; Pyrazinecarbonyl = O=C(c1cnccn1)*; hArg = N=C(N)NCCCC[C@H](N)C(=O)O; Tic = O=C(O)[C@@H]1Cc2ccccc2CN1; dTic = O=C(O)[C@H]1Cc2ccccc2CN1; Cha = N[C@@H](CC1CCCCC1)C(=O)O; dOrn = NCCC[C@@H](N)C(=O)O; Nle = CCCC[C@H](N)C(=O)O; Orn = NCCC[C@H](N)C(=O)O

Each molecule was assayed against T1, CXCR7 (Homo sapiens, UniProt P25106) (assay: CXCR7 β-arrestin recruitment assay (PathHunter CHO-CXCR7, DiscoverX), agonistic assay). Conditions: agonistic assay; CHO CXCR7 β-arrestin cells; 90 min at 37° C.; chemiluminescence; read-out: β-Arrestin EC50.
T1 construct: host or cells: CHO (PathHunter CHO-CXCR7 β-arrestin cells)
T1 sequence (P25106 whole entry): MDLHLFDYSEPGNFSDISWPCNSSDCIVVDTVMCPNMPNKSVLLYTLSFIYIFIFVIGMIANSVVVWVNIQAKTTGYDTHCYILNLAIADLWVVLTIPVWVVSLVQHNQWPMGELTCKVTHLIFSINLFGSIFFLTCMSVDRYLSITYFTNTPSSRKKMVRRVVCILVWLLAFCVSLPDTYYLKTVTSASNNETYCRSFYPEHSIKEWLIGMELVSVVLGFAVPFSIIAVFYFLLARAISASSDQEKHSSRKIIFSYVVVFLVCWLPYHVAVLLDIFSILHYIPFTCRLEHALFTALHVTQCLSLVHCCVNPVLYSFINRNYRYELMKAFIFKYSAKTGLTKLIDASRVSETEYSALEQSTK
Format: cell-based
Method in brief: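 CHO cells co-expressing CXCR7 and β-arrestin (PathHunter), seeded overnight, then exposed to serially diluted compounds at 1% DMSO for 90 min at 37 °C; SDF-1 served as positive agonist control. Enzyme-fragment complementation detection developed 90 min at room temperature, read by chemiluminescence.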
`CC(C)C[C@@H]1NC(=O)[C@H]([C@@H](C)O)NC(=O)[C@H]2CCCN2C(=O)[C@H](Cc2c[nH]c3ccccc23)NC(=O)[C@H](CCCNC(=N)N)NC(=O)[C@@H](CCCNC(=N)N)NC1=O` [compound 60, cyclo(-Leu-^DArg-Arg-Trp-^DPro-Thr-)] (cyclo(L[dR]RW[dP]T)) showed an EC50 of 5.3 ± 3.6 nM. `CCCC[C@@H]1NC(=O)[C@H]([C@@H](C)O)NC(=O)[C@H]2CCCN2C(=O)[C@H](Cc2c[nH]c3ccccc23)NC(=O)[C@H](CCCNC(=N)N)NC(=O)[C@@H](CCCNC(=N)N)NC1=O` [compound 61, cyclo(-Nle-^DArg-Arg-Trp-^DPro-Thr-)] (cyclo([Nle][dR]RW[dP]T)) gave an EC50 of 2.8 ± 1 nM. Work on `C[C@@H](O)[C@@H]1NC(=O)[C@H]2CCCN2C(=O)[C@H](Cc2c[nH]c3ccccc23)NC(=O)[C@H](CCCNC(=N)N)NC(=O)[C@@H](CCCNC(=N)N)NC(=O)[C@H](CC2CCCCC2)NC1=O` [compound 62, cyclo(-Cha-^DArg-Arg-Trp-^DPro-Thr-)] (cyclo([Cha][dR]RW[dP]T)) yielded an EC50 of 37.7 ± 18.5 nM. Work on `CC[C@H](C)[C@@H]1NC(=O)[C@H]([C@@H](C)O)NC(=O)[C@H]2CCCN2C(=O)[C@H](Cc2c[nH]c3ccccc23)NC(=O)[C@H](CCCNC(=N)N)NC(=O)[C@@H](CCCN)NC1=O` [compound 63, cyclo(-Ile-^DOrn-Arg-Trp-^DPro-Thr-)] (cyclo(I[dOrn]RW[dP]T)) yielded an EC50 of 23.3 ± 7.3 nM. `CC[C@H](C)[C@@H]1NC(=O)[C@H]([C@@H](C)O)NC(=O)[C@H]2CCCN2C(=O)[C@H](Cc2c[nH]c3ccccc23)NC(=O)[C@H](CCCNC(=O)c2cnccn2)NC(=O)[C@@H](CCCNC(=N)N)NC1=O` [compound 64, cyclo(-Ile-^DArg-Orn(A41)-Trp-^DPro-Thr-)] (cyclo(I[dR][Orn](Pyrazinecarbonyl)W[dP]T)) showed an EC50 of 518 ± 20.9 nM. For `CC[C@H](C)[C@@H]1NC(=O)[C@H]([C@@H](C)O)NC(=O)[C@H]2CCCN2C(=O)[C@H](Cc2c[nH]c3ccccc23)NC(=O)[C@H](CCCN)NC(=O)[C@@H](CCCNC(=N)N)NC1=O` [compound 65, cyclo(-Ile-^DArg-Orn-Trp-^DPro-Thr-)] (cyclo(I[dR][Orn]W[dP]T)), the EC50 was 816 ± 58.8 nM. `CC[C@H](C)[C@@H]1NC(=O)[C@H]([C@@H](C)O)NC(=O)[C@H]2CCCN2C(=O)[C@H](Cc2c[nH]c3ccccc23)NC(=O)[C@H](CCCCNC(=N)N)NC(=O)[C@@H](CCCNC(=N)N)NC1=O` [compound 66, cyclo(-Ile-^DArg-hArg-Trp-^DPro-Thr-)] (cyclo(I[dR][hArg]W[dP]T)) showed an EC50 of 11 ± 4.5 nM. Molecule `CC[C@H](C)[C@@H]1NC(=O)[C@H]([C@@H](C)O)NC(=O)[C@H]2Cc3ccccc3CN2C(=O)[C@H](Cc2c[nH]c3ccccc23)NC(=O)[C@H](CCCNC(=N)N)NC(=O)[C@@H](CCCNC(=N)N)NC1=O` [compound 67, cyclo(-Ile-^DArg-Arg-Trp-^DTic-Thr-)] (cyclo(I[dR]RW[dTic]T)) has an EC50 of 14.2 ± 5.2 nM. With `CC[C@H](C)[C@@H]1NC(=O)[C@H]([C@@H](C)O)NC(=O)[C@H]2CCCN2C(=O)[C@H](Cc2c[nH]c3ccccc23)NC(=O)[C@H](CCCNCc2ccccn2)NC(=O)[C@@H](CCCNC(=N)N)NC1=O` [compound 70, cyclo(-Ile-^DArg-Orn(Ar4)-Trp-^DPro-Thr-)] (cyclo(I[dR][X1]W[dP]T)) the EC50 was 4.6 ± 0.8 nM. For `N=C(N)NCCC[C@@H]1NC(=O)[C@H](Cc2c[nH]c3ccccc23)NC(=O)[C@@H](Cc2ccccc2)NC(=O)[C@H](Cn2ncnn2)NC(=O)[C@@H]2Cc3ccccc3CN2C(=O)[C@H]2C[C@@H](N)CN2C1=O` [compound 75, cyclo(-Ala(Tet)-^DPhe-Trp-Arg-^DPro((4R)NH2)-Tic-)] (cyclo(R[dPro(cis-4-NH2)][Tic][X2][dF]W)), the EC50 was 28.1 ± 5.1 nM. `N=C(N)NCCC[C@@H]1NC(=O)[C@H](Cc2c[nH]c3ccccc23)NC(=O)[C@@H](Cc2ccccc2)NC(=O)[C@H](CCCNC2=NCCCN2)NC(=O)[C@@H]2Cc3ccccc3CN2C(=O)[C@H]2C[C@@H](N)CN2C1=O` [compound 77, cyclo(-Orn(A56)-^DPhe-Trp-Arg-^DPro((4R)NH2)-Tic-)] (cyclo(R[dPro(cis-4-NH2)][Tic][Arg(Nω,Nω'-propylene)][dF]W)) showed an EC50 of 181 ± 62.9 nM. In the case of `Cn1ccnc1CNCCC[C@@H]1NC(=O)[C@H](Cc2c[nH]c3ccccc23)NC(=O)[C@@H](Cc2ccccc2)NC(=O)[C@H](Cc2c[nH]c3ccccc23)NC(=O)[C@@H]2Cc3ccccc3CN2C(=O)[C@H]2C[C@@H](N)CN2C1=O` [compound 78, cyclo(-Trp-^DPhe-Trp-Orn(Ar7)-^DPro((4R)NH2)-Tic-)] (cyclo([Tic]W[dF]W[X4][dPro(cis-4-NH2)])), the EC50 is reported as 145 ± 10.9 nM. Work on `N[C@@H]1C[C@@H]2C(=O)N3CCc4ccccc4[C@H]3C(=O)N[C@@H](Cc3c[nH]c4ccccc34)C(=O)N[C@H](Cc3ccccc3)C(=O)N[C@@H](Cc3c[nH]c4ccccc34)C(=O)N[C@@H](CCCNC3=NCCCN3)C(=O)N2C1` [compound 79, cyclo(-Trp-^DPhe-Trp-Orn(A56)-^DPro((4R)NH2)-Tiq-)] (cyclo(W[dF]W[Arg(Nω,Nω'-propylene)][dPro(cis-4-NH2)][Tiq1c(1S)])) yielded an EC50 of 46.9 ± 12.5 nM. Molecule `N[C@@H]1C[C@@H]2C(=O)N3Cc4ccccc4C[C@H]3C(=O)N[C@@H](Cc3c[nH]c4ccccc34)C(=O)N[C@H](Cc3ccccc3)C(=O)N[C@@H](Cc3c[nH]c4ccccc34)C(=O)N[C@@H](CCCNC3=NCCCN3)C(=O)N2C1` [compound 80, cyclo(-Trp-^DPhe-Trp-Orn(A56)-^DPro((4R)NH2)-Tic-)] (cyclo([Tic]W[dF]W[Arg(Nω,Nω'-propylene)][dPro(cis-4-NH2)])) has an EC50 of 33.4 ± 0.8 nM.
